ChEMBL document CHEMBL1128493, “Synthesis and sigma binding properties of 2'-substituted 5,9 alpha-dimethyl-6,7-benzomorphans” (J Med Chem, 1995)

How the values were obtained:
[1] = Binding affinity measured on Sigma receptor type 1 from guinea pig brain membranes using [3H]pentazocine as radioligand.
[2] = Binding affinity at Sigma receptor type 2 on rat liver membranes receptor by [3H]DTG displacement.

CC1C2Cc3ccc(O)cc3C1(C)CCN2Cc1ccccc1 (single isomer, unassigned; (+)) showed a Ki [1] of 0.67 nM and a Ki [2] of 1710 nM.
